Measurements from ChEMBL document CHEMBL2417399, “Discovery of highly potent and selective D4 ligands by interactive SAR study” (Bioorg Med Chem Lett, 2013).

How the values were obtained:
D(1A) dopamine receptor = D(1A) dopamine receptor (Homo sapiens, UniProt P21728); assay: Displacement of [3H]SCH23390 from human dopamine D1 receptor
D(4) dopamine receptor = biological target: T1, D(4) dopamine receptor (Homo sapiens, UniProt P21917); assay: Binding affinity to human dopamine D4 receptor by radioligand binding assay
T1 sequence (P21917 whole entry): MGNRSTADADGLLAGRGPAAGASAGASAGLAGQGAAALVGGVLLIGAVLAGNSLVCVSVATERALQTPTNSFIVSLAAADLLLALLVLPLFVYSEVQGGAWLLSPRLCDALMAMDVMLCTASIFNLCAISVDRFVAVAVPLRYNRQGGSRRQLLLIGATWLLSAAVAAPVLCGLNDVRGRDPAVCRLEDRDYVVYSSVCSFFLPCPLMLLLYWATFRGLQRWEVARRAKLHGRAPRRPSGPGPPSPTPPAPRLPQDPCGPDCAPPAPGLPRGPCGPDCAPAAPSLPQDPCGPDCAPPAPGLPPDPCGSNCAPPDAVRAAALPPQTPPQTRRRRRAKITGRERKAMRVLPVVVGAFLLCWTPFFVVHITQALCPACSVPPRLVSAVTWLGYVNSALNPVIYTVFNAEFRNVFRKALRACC

D(1B) dopamine receptor = D(1B) dopamine receptor (Homo sapiens, UniProt P21918); assay: Binding affinity to human dopamine D5 receptor by radioligand binding assay
D(3) dopamine receptor = D(3) dopamine receptor (Homo sapiens, UniProt P35462); assay: Binding affinity to human dopamine D3 receptor by radioligand binding assay
D(2) dopamine receptor = D(2) dopamine receptor (Homo sapiens, UniProt P14416); assay: Displacement of [3H]spiperone from human dopamine D2 receptor
Homo sapiens = species on record: Homo sapiens; assay: Selectivity ratio of Ki for human dopamine D2 receptor to Ki for human dopamine D4 receptor

Sequence of D(3) dopamine receptor (P35462 whole entry): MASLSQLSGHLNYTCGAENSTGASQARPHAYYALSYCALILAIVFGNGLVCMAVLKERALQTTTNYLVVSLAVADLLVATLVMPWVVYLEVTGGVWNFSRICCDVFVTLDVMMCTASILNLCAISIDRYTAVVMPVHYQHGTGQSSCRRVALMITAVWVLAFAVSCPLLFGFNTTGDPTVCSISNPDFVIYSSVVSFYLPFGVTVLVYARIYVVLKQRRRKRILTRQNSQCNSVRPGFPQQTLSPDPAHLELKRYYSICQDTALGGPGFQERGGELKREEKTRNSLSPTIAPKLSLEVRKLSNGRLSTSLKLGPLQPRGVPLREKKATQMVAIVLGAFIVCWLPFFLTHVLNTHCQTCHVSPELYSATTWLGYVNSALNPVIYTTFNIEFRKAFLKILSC
Sequence of D(1A) dopamine receptor (P21728 whole entry): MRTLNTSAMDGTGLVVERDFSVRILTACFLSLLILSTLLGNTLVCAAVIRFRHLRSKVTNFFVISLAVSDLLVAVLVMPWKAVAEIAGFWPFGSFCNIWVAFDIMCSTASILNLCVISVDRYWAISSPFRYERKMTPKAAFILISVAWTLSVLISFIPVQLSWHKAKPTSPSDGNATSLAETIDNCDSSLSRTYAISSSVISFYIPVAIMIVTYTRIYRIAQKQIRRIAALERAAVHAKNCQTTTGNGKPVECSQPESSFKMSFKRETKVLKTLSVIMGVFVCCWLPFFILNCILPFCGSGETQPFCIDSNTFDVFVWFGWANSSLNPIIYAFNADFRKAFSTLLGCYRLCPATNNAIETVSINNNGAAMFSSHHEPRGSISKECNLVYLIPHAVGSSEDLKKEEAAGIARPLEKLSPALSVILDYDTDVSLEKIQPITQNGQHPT
Sequence of D(1B) dopamine receptor (P21918 whole entry): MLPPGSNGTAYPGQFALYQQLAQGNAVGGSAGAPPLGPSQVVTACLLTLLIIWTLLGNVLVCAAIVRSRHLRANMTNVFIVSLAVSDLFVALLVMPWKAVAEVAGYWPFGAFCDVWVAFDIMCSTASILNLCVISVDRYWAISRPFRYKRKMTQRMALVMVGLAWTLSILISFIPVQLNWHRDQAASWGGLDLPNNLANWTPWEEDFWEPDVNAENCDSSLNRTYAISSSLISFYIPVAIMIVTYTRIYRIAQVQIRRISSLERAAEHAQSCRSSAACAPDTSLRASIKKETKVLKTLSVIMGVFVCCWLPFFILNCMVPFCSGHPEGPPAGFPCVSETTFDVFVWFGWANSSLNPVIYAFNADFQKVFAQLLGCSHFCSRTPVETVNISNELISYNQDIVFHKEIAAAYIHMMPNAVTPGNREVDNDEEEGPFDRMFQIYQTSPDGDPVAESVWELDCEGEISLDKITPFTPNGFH
Sequence of D(2) dopamine receptor (P14416 whole entry): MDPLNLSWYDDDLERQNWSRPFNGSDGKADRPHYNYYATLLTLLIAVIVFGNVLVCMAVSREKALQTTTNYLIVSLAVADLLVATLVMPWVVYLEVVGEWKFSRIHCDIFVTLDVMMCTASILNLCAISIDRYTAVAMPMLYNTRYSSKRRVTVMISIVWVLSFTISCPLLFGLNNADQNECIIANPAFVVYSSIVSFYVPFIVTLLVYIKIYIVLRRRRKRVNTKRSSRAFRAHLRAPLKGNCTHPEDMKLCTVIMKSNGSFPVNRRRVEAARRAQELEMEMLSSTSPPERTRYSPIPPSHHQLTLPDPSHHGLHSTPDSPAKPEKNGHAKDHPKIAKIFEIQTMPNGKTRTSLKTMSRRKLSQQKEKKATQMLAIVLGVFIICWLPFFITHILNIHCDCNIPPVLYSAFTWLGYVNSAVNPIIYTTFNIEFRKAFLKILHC

Row | Ratio Ki (Homo sapiens) | SMILES | Ki (D(1A) dopamine receptor) | Ki (D(4) dopamine receptor) | Ki (D(1B) dopamine receptor) | Ki (D(3) dopamine receptor) | Ki (D(2) dopamine receptor)
1 |  | Clc1cccc(N2CCN(Cc3cccc4ccccc34)CC2)c1Cl | > 10000 nM | 31 nM | > 10000 nM | 92 nM | 351 nM
2 |  | Clc1cccc(N2CCN(Cc3csc4ccccc34)CC2)c1Cl | > 10000 nM | 22.5 nM | > 10000 nM | 52.5 nM | 383 nM
3 |  | Clc1cccc(N2CCN(Cc3c[nH]c4ccccc34)CC2)c1Cl | > 10000 nM | 6.2 nM | > 10000 nM | 123 nM | 
4 |  | Clc1ccc(N2CCN(Cc3cc4ccccn4n3)CC2)cc1 |  | 3.1 nM |  | 5000 nM | 3200 nM
5 |  | CCOc1ccccc1N1CCN(Cc2cccnc2)CC1 | > 10000 nM | 0.7 nM | > 10000 nM | 42 nM | 255 nM
6 |  | CCOc1ccccc1N1CCN(Cc2cccc3ccccc23)CC1 | > 10000 nM | 2 nM | > 10000 nM | 59 nM | 264 nM
7 |  | CCOc1ccccc1N1CCN(Cc2c[nH]c3ccccc23)CC1 | > 10000 nM | 0.03 nM | > 10000 nM | 103 nM | 473 nM
8 | 14 | CCOc1ccccc1N1CCN(Cc2cccs2)CC1 | > 10000 nM | 3.9 nM | > 10000 nM | 112 nM | 162 nM
9 |  | CCOc1ccccc1N1CCN(Cc2csc3ccccc23)CC1 | > 10000 nM | 4.5 nM | > 10000 nM | 45.1 nM | 219 nM
10 |  | Clc1cccc(N2CCN(Cc3cccnc3)CC2)c1Cl | > 10000 nM | 4.4 nM | > 10000 nM | 41 nM | 327 nM
